Laboratory results taken from ChEMBL document CHEMBL5120969, “Identification of Monosaccharide Derivatives as Potent, Selective, and Orally Bioavailable Inhibitors of Human and Mouse Galectin-3” (J Med Chem, 2022).

Assays:
[1] = Permeability of the compound at pH 5.5 measured for 4 hrs by UV plate reader based PAMPA assay; format: ADME; conditions: read-out: permeability
[2] = Permeability of the compound at pH 7.4 measured for 4 hrs by UV plate reader based PAMPA assay; format: ADME; conditions: read-out: permeability
[3] = Metabolic stability of the compound in rat liver microsomes assessed as CYP450-mediated metabolism by measuring parent compound remaining at 0.5 uM measured after 10 mins in presence of NADPH by LC-MS/MS analysis; format: ADME, Microsome; conditions: read-out: Stability
[4] = Metabolic stability of the compound in mouse liver microsomes assessed as CYP450-mediated metabolism by measuring parent compound remaining at 0.5 uM measured after 10 mins in presence of NADPH by LC-MS/MS analysis; format: ADME, Microsome; conditions: read-out: Stability
[5] = Cmax in C57BL6 mouse at 10 mg/kg, po measured upto 24 hrs by LC-MS/MS analysis; format: ADME, organism-based; parameters: time < 24 hrs, dose 10 mg/kg, route po; conditions: in vivo
[6] = AUC (0 to 24 hrs) in C57BL6 mouse at 10 mg/kg, po measured upto 24 hrs by LC-MS/MS analysis; format: ADME, organism-based; parameters: dose 10 mg/kg, time < 24 hrs, route po; conditions: in vivo
[7] = Clearance in C57BL6 mouse at 2 mg/kg, iv measured upto 24 hrs by LC-MS/MS analysis; format: ADME, organism-based; conditions: in vivo
[8] = Volume of distribution at steady state in C57BL6 mouse at 2 mg/kg, iv measured upto 24 hrs by LC-MS/MS analysis; format: ADME, organism-based; conditions: in vivo, read-out: Vdss
[9] = Oral bioavailability in C57BL6 mouse at 10 mg/kg measured upto 24 hrs by LC-MS/MS analysis; format: ADME, organism-based; conditions: in vivo

Papp at 4 h [1] | Papp at 4 h [2] | Compound | further results
15 ×10⁻⁶ cm/s | 18.1 ×10⁻⁶ cm/s | Cc1nc([C@@H]2O[C@H](CO)[C@H](O)[C@H](n3cc(-c4cc(F)c(F)c(F)c4)nn3)[C@H]2O)n(-c2cc(Cl)ccc2C)n1 | 
15.7 ×10⁻⁶ cm/s | 14 ×10⁻⁶ cm/s | COc1ccc(Cl)cc1-n1nc(C)nc1[C@@H]1O[C@H](CO)[C@H](O)[C@H](n2cc(-c3cc(F)c(F)c(F)c3)nn2)[C@H]1O | 
42.3 ×10⁻⁶ cm/s | 45.2 ×10⁻⁶ cm/s | Cc1nc([C@@H]2O[C@H](CO)[C@H](O)[C@H](n3cc(-c4cc(F)c(F)c(F)c4)nn3)[C@H]2O)n(-c2cccc(Cl)c2Cl)n1 | 
3.1 ×10⁻⁶ cm/s | 3.3 ×10⁻⁶ cm/s | OC[C@H]1O[C@@H](n2nncc2-c2cccc(Cl)c2)[C@H](O)[C@@H](n2cc(-c3cc(F)c(F)c(F)c3)nn2)[C@H]1O | 
24.7 ×10⁻⁶ cm/s | 30.4 ×10⁻⁶ cm/s | Cc1nc([C@@H]2O[C@H](CO)[C@H](O)[C@H](n3cc(-c4cc(F)c(F)c(F)c4)nn3)[C@H]2O)n(-c2cc(Cl)ccc2Cl)n1 | 
12.7 ×10⁻⁶ cm/s | 12.5 ×10⁻⁶ cm/s | Cc1nc([C@@H]2O[C@H](CO)[C@H](O)[C@H](n3cc(-c4cc(F)c(F)c(F)c4)nn3)[C@H]2O)n(-c2cc(Cl)ccc2F)n1 | 
36.3 ×10⁻⁶ cm/s | 34.5 ×10⁻⁶ cm/s | Cc1nc([C@@H]2O[C@H](CO)[C@H](O)[C@H](n3cc(-c4cc(F)c(F)c(F)c4)nn3)[C@H]2O)n(-c2cccc(Cl)c2)n1 | 
44.4 ×10⁻⁶ cm/s | 45.6 ×10⁻⁶ cm/s | Cc1nc([C@@H]2O[C@H](CO)[C@H](O)[C@H](n3cc(-c4cc(F)c(F)c(F)c4)nn3)[C@H]2O)n(-c2ccc(Cl)c(Cl)c2)n1 | 
 | 7 ×10⁻⁶ cm/s | OC[C@H]1O[C@@H](n2nncc2-c2ccc(Cl)c(Cl)c2)[C@H](O)[C@@H](n2cc(-c3cc(F)c(F)c(F)c3)nn2)[C@H]1O | 
 | 0.6 ×10⁻⁶ cm/s | OC[C@H]1O[C@@H](c2nncn2-c2cccc(Cl)c2)[C@H](O)[C@@H](n2cc(-c3cc(F)c(F)c(F)c3)nn2)[C@H]1O | 
 | 20.3 ×10⁻⁶ cm/s | OC[C@H]1O[C@@H](c2ncnn2-c2cccc(Cl)c2)[C@H](O)[C@@H](n2cc(-c3cc(F)c(F)c(F)c3)nn2)[C@H]1O | 
 |  | Cc1nc([C@@H]2O[C@H](CO)[C@H](O)[C@H](n3cc(-c4cc(F)c(Cl)c(F)c4)nn3)[C@H]2O)n(-c2cc(Cl)ccc2C(F)(F)F)n1 | remaining at 10 min, 0.5 µM [3]: 91%; remaining at 10 min, 0.5 µM [4]: 85%; Cmax [5]: 5 µM; AUC(0-t) at 24 h [6]: 40 µM·h; clearance [7]: 7 mL/min/kg; Vd [8]: 1.7 L/kg; bioavailability [9]: 100%
51.1 ×10⁻⁶ cm/s | 36.9 ×10⁻⁶ cm/s | Cc1nc([C@@H]2O[C@H](CO)[C@H](O)[C@H](n3cc(-c4cc(F)c(F)c(F)c4)nn3)[C@H]2O)n(-c2cc(Cl)ccc2C(F)(F)F)n1 | 
10.8 ×10⁻⁶ cm/s | 12.5 ×10⁻⁶ cm/s | Cc1nc([C@@H]2O[C@H](CO)[C@H](O)[C@H](n3cc(-c4cc(F)c(F)c(F)c4)nn3)[C@H]2O)n(-c2cc(Cl)cc(Cl)c2)n1 | 
 |  | Cc1nc([C@@H]2O[C@H](CO)[C@H](O)[C@H](n3cc(-c4ccc(Cl)c(F)c4F)nn3)[C@H]2O)n(-c2cc(Cl)ccc2C(F)(F)F)n1 | Cmax [5]: 3.6 µM; AUC(0-t) at 24 h [6]: 37 µM·h
14.5 ×10⁻⁶ cm/s | 14.8 ×10⁻⁶ cm/s | Cc1nc([C@@H]2O[C@H](CO)[C@H](O)[C@H](n3cc(-c4cc(F)c(F)c(F)c4)nn3)[C@H]2O)n(-c2cc(Cl)ccc2Br)n1 | 
 |  | Cc1nc([C@@H]2O[C@H](CO)[C@H](O)[C@H](n3cc(-c4ccc(Br)c(F)c4F)nn3)[C@H]2O)n(-c2cc(Cl)ccc2C(F)(F)F)n1 | Cmax [5]: 5 µM; AUC(0-t) at 24 h [6]: 40 µM·h; clearance [7]: 2.7 mL/min/kg; Vd [8]: 2.4 L/kg; bioavailability [9]: 40%
